Experimental data from patent US20080221097A1, “Imidazopyridine Derivatives as Cannabinoid Receptor Ligands” (priority 2005, published 2008).
Where a name gives a salt, the structure may show the parent alone.

Target: T1, human cannabinoid CB2 receptor (Homo sapiens, UniProt P34972)
T1 construct: expressed in transfected cells; host or cells: Saccharomyces cerevisiae strain MMY23 (cassette integrated at the ura3 locus, GPD promoter)
Experiment: Cannabinoid CB2 receptor agonist activity, yeast assay
Type: cell-based
Details: relative to HU210; averages of a number of experiments; read-out: efficacy (Emax) at the cloned human cannabinoid CB2 receptor
Method: The cannabinoid CB2 receptor agonist activity of compounds of formula (I) was determined in accordance with the following experimental method.
Yeast (Saccharomyces cerevisiae) cells expressing the human cannabinoid CB2 receptor were generated by integration of an expression cassette into the ura3 chromosomal locus of yeast strain MMY23. This cassette consisted of DNA sequence encoding the human CB2 receptor flanked by the yeast GPD promoter to the 5′ end of CB2 and a yeast transcriptional terminator sequence to the 3′ end of CB2. MMY23 expresses a yeast/mammalian chimeric G-protein alpha subunit in which the C-terminal 5 amino acids of Gpa1 are replaced with the C-terminal 5 amino acids of human Gαi½ (as described in Brown et al. (2000), Yeast 16:11-22). Cells were grown at 30° C. in liquid Synthetic Complete (SC) yeast media (Guthrie and Fink (1991), Methods in Enzymology, Vol. 194) lacking uracil, tryptophan, adenine and leucine to late logarithmic phase (approximately 6 OD600/ml).
Agonists were prepared as […] solutions in DMSO. EC50 values (the concentration required to produce 50% maximal response) were estimated using 4 fold dilutions (BiomekFX, Beckman) into DMSO. Agonist solutions in DMSO (1% final assay volume) were transferred into black microtitre plates from Greiner (384-well). Cells were suspended at a density of 0.2 OD600/ml in SC media lacking histidine, uracil, tryptophan, adenine and leucine and supplemented with 10 mM 3-aminotriazole, 0.1M sodium phosphate pH 7.0, and 10 μM fluorescein di-β-D-glucopyranoside (FDGlu). This mixture (50 μl per well) was added to agonist in the assay plates (Multidrop 384, Labsystems). After incubation at 30° C. for 24 hours, fluorescence resulting from degradation of FDGlu to fluorescein due to exoglucanase, an endogenous yeast enzyme produced during agonist-stimulated cell growth, was determined using a fluorescence microtitre plate reader (Tecan Spectrofluor or LJL Analyst excitation wavelength: 485 nm; emission wavelength: 535 nm). Fluorescence was plotted against compound concentration and iteratively curve fitted using a four parameter fit to generate a concentration effect value. Efficacy (Emax) was calculated from the equation
Emax=Max[compound X]−Min[compound X]/Max[HU210]−Min[HU210]×100%
where Max[compound X] and Min[compound X] are the fitted maximum and minimum respectively from the concentration effect curve for compound X, and Max[HU210] and Min[HU210] are the fitted maximum and minimum respectively from the concentration effect curve for (6aR,10aR)-3-(1,1′-Dimethylheptyl)-6a,7,10,10a-tetrahydro-1-hydroxy-6,6-dimethyl-6H-dibenzo [b,d]pyran-9-methanol (HU210; available from Tocris). Equieffective molar ratio (EMR) values were calculated from the equation
Where EC50[compound X] is the EC50 of compound X and EC50[HU210] is the EC50of HU210.

T1 sequence (P34972 whole entry): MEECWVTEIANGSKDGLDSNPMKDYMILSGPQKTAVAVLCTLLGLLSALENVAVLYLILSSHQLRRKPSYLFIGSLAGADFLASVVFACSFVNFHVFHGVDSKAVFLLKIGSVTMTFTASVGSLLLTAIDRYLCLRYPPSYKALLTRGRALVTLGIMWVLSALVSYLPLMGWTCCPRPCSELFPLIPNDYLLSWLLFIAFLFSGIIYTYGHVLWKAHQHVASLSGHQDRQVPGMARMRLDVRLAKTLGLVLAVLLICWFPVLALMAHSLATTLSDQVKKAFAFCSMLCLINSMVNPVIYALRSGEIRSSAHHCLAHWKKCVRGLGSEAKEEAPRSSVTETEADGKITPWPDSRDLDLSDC

Structure (SMILES) | Emax [%]
Cn1cnc2c(Nc3cccc(Br)c3)ncc(C(=O)N3CCCCC3)c21 [Example 1, N-(3-Bromophenyl)-1-methyl-7-(1-piperidinylcarbonyl)-1H-imidazo[4,5-c]pyridin-4-amine hydrochloride salt] | > 50
Cn1cnc2c(Nc3cccc(Br)c3)ncc(C(=O)N3CCCC3)c21 [Example 3, N-(3-Bromophenyl)-1-methyl-7-(1-pyrrolidinylcarbonyl)-1H-imidazo[4,5-c]pyridin-4-amine hydrochloride salt] | > 50
CC(C)CNC(=O)c1cnc(Nc2cccc(Br)c2)c2ncn(C)c12 [Example 4, 4-[(3-Bromophenyl)amino]-1-methyl-N-(2-methylpropyl)-1H-imidazo[4,5-c]pyridine-7-carboxamide hydrochloride salt] | > 50
Cn1cnc2c(Nc3ccc(Cl)cc3Cl)ncc(C(=O)N3CCOCC3)c21 [Example 5, N-(2,4-Dichlorophenyl)-1-methyl-7-(4-morpholinylcarbonyl)-1H-imidazo[4,5-c]pyridin-4-amine hydrochloride salt] | > 50
Cn1cnc2c(Nc3ccc(Cl)cc3Cl)ncc(C(=O)N3CCCC3)c21 [Example 7, N-(2,4-Dichlorophenyl)-1-methyl-7-(1-pyrrolidinylcarbonyl)-1H-imidazo[4,5-c]pyridin-4-amine hydrochloride salt] | > 50
Cn1cnc2c(Nc3cccc(Cl)c3)ncc(C(=O)N3CCCCC3)c21 [Example 10, N-(3-Chlorophenyl)-1-methyl-7-(1-piperidinylcarbonyl)-1H-imidazo[4,5-c]pyridin-4-amine hydrochloride salt] | > 50
CC(C)CNC(=O)c1cnc(Nc2cccc(Cl)c2)c2ncn(C)c12 [Example 12, 4-[(3-Chlorophenyl)amino]-1-methyl-N-(2-methylpropyl)-1H-imidazo[4,5-c]pyridine-7-carboxamide hydrochloride salt] | > 50

The next lines start with the values.

Emax [%] | Structure (SMILES)
> 50 | Cn1cnc2c(Oc3cccc(Cl)c3)ncc(C(=O)N3CCCCC3)c21 [Example 13, 4-[(3-Chlorophenyl)oxy]-1-methyl-7-(1-piperidinylcarbonyl)-1H-imidazo[4,5-c]pyridine hydrochloride salt]
> 50 | Cn1cnc2c(Oc3cccc(Cl)c3)ncc(C(=O)N3CCOCC3)c21 [Example 14, 4-1(3-Chlorophenyl)oxy]-1-methyl-7-(4-morpholinylcarbonyl)-1H-imidazo[4,5-c]pyridine hydrochloride salt]
> 50 | Cn1cnc2c(Nc3cccc(OC(F)(F)F)c3)ncc(C(=O)N3CCOCC3)c21 [Example 17, 1-Methyl-7-(4-morpholinylcarbonyl)-N-{3-[(trifluoromethyl)oxy]phenyl}-1H-imidazo[4,5-c]pyridin-4-amine hydrochloride salt]
> 50 | Cn1cnc2c(Nc3cccc(F)c3)ncc(C(=O)N3CCOCC3)c21 [Example 18, N-(3-Fluorophenyl)-1-methyl-7-(4-morpholinylcarbonyl)-1H-imidazo[4,5-c]pyridin-4-amine hydrochloride salt]
> 50 | Cc1c(Nc2ncc(C(=O)N3CCOCC3)c3c2ncn3C)cccc1C(F)(F)F [Example 20, 1-Methyl-N-[2-methyl-3-(trifluoromethyl)phenyl]-7-(4-morpholinylcarbonyl)-1H-imidazo[4,5-c]pyridin-4-amine hydrochloride salt]
> 50 | Cn1cnc2c(Nc3cccc(C(F)(F)F)c3F)ncc(C(=O)N3CCOCC3)c21 [Example 21, N-[2-Fluoro-3-(trifluoromethyl)phenyl]-1-methyl-7-(4-morpholinylcarbonyl)-1H-imidazo[4,5-c]pyridin-4-amine hydrochloride salt]
> 50 | Cn1cnc2c(Nc3ccc(F)c(Cl)c3)ncc(C(=O)N3CCOCC3)c21 [Example 22, N-(3-Chloro-4-fluorophenyl)-1-methyl-7-(4-morpholinylcarbonyl)-1H-imidazo[4,5-c]pyridin-4-amine hydrochloride salt]
